Test results as given in US8143241B2, “DNA damage repair inhibitors for treatment of cancer” (Kudos Pharmaceuticals Limited, priority 2003, dated 2012).

Legend:
[1] = test system: Brca1 and Brca2 wild type and mutant ES cells; experiment: FACS analysis of cell cycle arrest (DNA content, phospho-histone H3); assay type: cell-based, mouse
Procedure: For DNA content measurement, cells were fixed in 70% ethanol, incubated with Rnase A and propidium iodide (PI) and analysed with a FACSCalibur (Becton Dickinson). For phospho-Histone H3 analysis, cells were fixed in 70% ethanol, permeabilised with 0.25% triton X-100, incubated with anti-phospho-histone H3 antibody (Upstate Biotechnology) for 3 hours, and then with FITC-anti rabbit IgG (Serotec) for 30 minutes.
Cells were exposed with KU0058684 for various periods then labelled with BrdU and the proportion of cells in each phase of the cell cycle. […] To further characterise this arrest, cells were analysed for both DNA content and for phosphorylated Histone H3, an M phase marker. […]

Brca1 deficient ES cells = experiment: Clonogenic assay, continuous exposure, Brca1 deficient ES cells; assay type: cell-based, mouse
Procedure: (§1) For measurement of sensitivity to chemical inhibitors, cell cultures e.g. ES cells or mouse embryonic fibroblasts, in exponential growth were trypsinised and seeded at various densities in 6-well plates onto confluent monolayer of Mitomycin C (MMC) inactivated mouse embryonic fibroblasts and, where appropriate, treated with inhibitors after 18 h. For continuous exposure, cells were re-fed every 4 days with fresh medium and inhibitor. For timed exposures, inhibitor was added for the specified period then cells were washed and re-fed with fresh medium. After 10-14 days, cells were washed with PBS, fixed in methanol and stained with crystal violet. Colonies containing greater than approximately 50 cells were counted. Experiments were performed at least three times in triplicate.

tankyrase = conditions: at concentrations up to 1 μM
[2] = test system: Fancd2−/−, Fanca−/−, Fancc−/− and Fanca−/−c−/− fibroblasts; experiment: Clonogenic survival, Fanconi anaemia mouse fibroblasts; assay type: cell-based; conditions: continuous exposure 12-14 days
Procedure: Mouse fibroblasts from wild-type, Fancd2^−/−, Fanca^−/−, Fancc^−/− and Fanca^−/−c^−/− animals were obtained from the Fanconi Anaemia Cell Repository, Oregon Health and Science University. These cells were maintained in DMEM, supplemented with FCS (10% v/v), glutamine and antibiotics. RAD54 and RAD52 Embryonic Stem (ES) cells were grown in DMEM, supplemented with FCS (15% v/v), glutamine, antibiotics, non-essential amino acids, 2-mercaptoethanol and Leukemia inhibitory Factor. HeLa cells (CCL-2) were obtained from ATCC (USA) and were maintained in DMEM, supplemented with FCS (10% v/v), glutamine and antibiotics.
as §1

[3] = test system: chinese hamster ovary cells deficient in Brca2 (V-C8); experiment: Clonogenic assay, Brca2 deficient chinese hamster ovary cells (V-C8) vs Brca2-complemented derivative; assay type: cell-based; conditions: Brca2 deficient CHO cells vs complemented derivative
From the text: VC8 cells and the mouse Brca2 BAC complemented derivatives were as described in M. Kraakman-van der Zwet et al., Mol Cell Biol 22, 669-79 (2002)). ES cells defective in Brca2 function have been described previously (Tutt et al. (2002) EMBO Rep 3, 255-60). The construction of ES cells defective in Brca1 will be described elsewhere but have previously been validated (Foray et al. (2003) Embo J 22 2860-71). HBL100 cells were transfected with a pSUPER BRCA1 RNAi plasmid and selected with geneticin for 3 weeks. Clones were selected on the basis of their BRCA1 expression, as analysed by Northern blot.
as §1

[4] = test system: Brca2 deficient VC8 cells; experiment: Neutral comet assay, Brca2 deficient VC8 cells; assay type: cell-based, chinese hamster; conditions: 30-hour exposure to 1 μM
Procedure: (§2) VC8 and VC8-BAC cells were plated 24 hours prior to treatment with 1 μM KU0058684 for 30 hours. All further work was carried out in the dark. Cells were washed with and scraped into PBS prior to Comet analysis as described (Lemay and Wood, 1999). Cells suspended in LMP agarose (0.5% in PBS) were spread onto Comet slides (Trevigen, Gaithersburg) and placed at 4 C until set, prior to lysis for 45 mins in 2.5M NaCl, 100 mM EDTA, 10 mM Tris Base, 1% sodium lauryl sarcosinate, 0.01% Triton X-100. Slides were transferred to TBE for 5 mins prior to electrophoresis at 18V for 15 mins. Slides were then fixed in 100% ethanol for 5 mins and air dried before the addition of SYBR green dye and visualisation by epifluorescence using fluorescien filters (Nikon). Comets were analysed using the Comet software module of the Lucia G imaging package as supplied by Nikon. 50 comets per data point were examined for each of three independent experiments and the mean tail moment calculated.

VC8-BAC cells = experiment: Neutral comet assay, complemented VC8-BAC line; assay type: cell-based, chinese hamster; conditions: 30-hour exposure to 1 μM
Procedure: as §2

[5] = test system: Brca2 deficient ES cell derived tumours; experiment: ES cell xenografts (teratomas) in athymic BALB/c nude mice; assay type: in vivo, mouse; conditions: 15 mg/kg intraperitoneal, two doses per day
Procedure: ES cell derived tumours (teratomas) were produced by subcutaneous injection of […] ES cells into 6-8 week athymic BALB/c nude (nu/nu) mice. Twenty mice were injected with Brca2 deficient ES cells and an identical cohort with isogenic wild type cells. Two days after cell injection, treatment with KU0058684 or vehicle was initiated. For three consecutive days, two Intraperitoneal doses of KU0058684 (or vehicle) were administered, six hour apart, each at a dosage of 15 mg/kg animal. This treatment was then stopped for five days and then reinitiated (as before) for another three consecutive days. Growth of tumours was monitored from a minimum volume of 0.3 cm^3. The data in FIG. 16 represents two separate experiments involving in total 40 animals.

[6] = test system: pSUPER-CFP-CONTROL transfected HeLa cells; experiment: Clonogenic survival, control transfected HeLa cells; assay type: cell-based, human; conditions: constant exposure 12-14 days, read-out: SF50 (the source's name)
From the text: Clonogenic survival curves of transfected HeLa cells under constant exposure to a range of concentrations of PARP inhibitor (KU0058684) for 12-14 days. […] SF50 for pSUPER-CFP-CONTROL transfected cells is >1×10^−5 M and is 1×10^−6 M for pSUPER-CFP-17/19/23 transfected cells.
HeLa cells were transfected using FuGene (Roche, USA) according to the manufacturers instructions. For clonogenic survival assays, cells were co-transfected in 6 well plates with pSUPER and a vector expressing blasticidin resistance (pEF-Bsd, Invitrogen, USA) at a ratio of 10:1 (pSUPER: pEF-Bsd). Twenty-four hours after transfection, cells were plated into replica plates and this was followed by treatment with PARP inhibitors and blasticidin 48 hours post transfection.

HeLa cells = experiment: Cell viability, HeLa cells exposed to PARP inhibitor and caffeine; conditions: 1 mM Caffeine plus KU0058684
From the text: Error bars represent standard errors of the mean.
Caffiene was used to determine whether loss of ATM and ATR dependent DNA signalling pathways would induce sensitivity to PARP inhibition.

O=C1CCC(=O)N1c1cc(Cc2n[nH]c(=O)c3ccccc23)ccc1F [KU0058684]
cell cycle arrest (DNA content, FACS) [1]: profound arrest of cells with a tetraploid DNA content
phase of arrest (phospho-histone H3 labelling) [1]: majority of cells were arrested in G2
IC50 (Brca1 deficient ES cells; Brca1 deficient ES cells, continuous exposure, read-out: SF50 (dosage at which 50% of cells survived)): 35 nM
enhanced sensitivity compared to wild-type (Brca1 deficient ES cells; Brca1 mutant cells vs wild-type): 57 fold
sensitivity of Brca1 deficient cells compared to otherwise isogenic cells (Brca1 deficient ES cells; clonogenic assay): extremely sensitive
inhibition of tankyrase (tankyrase): do not inhibit
sensitivity of FA gene deficient fibroblasts compared to wild-type cells [2]: results in sensitivity
enhanced sensitivity compared to a Brca2-complemented derivative [3]: greater than 1000 fold
increase in the tail moment [4]: 4.7 fold
increase in tail moment (VC8-BAC cells): no significant increase
growth of Brca2 deficient tumours relative to wild-type tumours [5]: dramatically reduce the growth
IC50 [6]: > 10000 nM
sensitivity of HeLa cells to PARP inhibitor with caffeine (HeLa cells): increased sensitivity
